# Earlier results, collected in patent US12394803B2, “Production method of catalyst, catalyst, production method of composition, composition, electrode, manufacturing method of electrode, fuel cell, metal-air battery” (Azul Energy Inc., priority 2019, dated 2025).
# Conditions: background statement on Patent Document 1
structure (smiles),measurement,value
"[Fe+2].c1ccc2c(c1)-c1nc-2nc2[n-]c(nc3nc(nc4[n-]c(n1)c1ccccc41)-c1ccccc1-3)c1ccccc21 [Iron phthalocyanines, Iron phthalocyanine]",Solubility in 2-propanol,low solubility
